# Results as given in patent US9447060B2, “Small molecule modulators of pRb inactivation” (The Wistar Institute of Anatomy and Biology, priority 2011, dated 2016).
# Columns and labels:
# SiHa cells = test: Cell cycle and apoptosis in SiHa cells, propidium iodide flow cytometry and morphology; type: cell-based; conditions: 48 hours
# Experimental: Since the thiadiazolin-3,5-dione compounds bind to pRb, data was generated regarding their effect in cells infected with HPV. […] DNA content was determined by propidium iodine staining and analysis by flow cytometry.
# Cultured cell lines were seeded in 60 mm tissue culture dishes (Falcon) at 1×10^5 cells/well. […] Cells were then trypsinized, washed with phosphate-buffered saline (1.0 mL; PBS), and fixed in ethanol (80%) for 30 minutes on ice. Fixed cells were spun at 500 g for 5 minutes, rehydrated with PBS (1 mL), and spun again to remove any traces of ethanol. Cells were stained with propidium iodide (250 μL; PI), which was prepared by adding PI (100 μL, 2 mg/ml, Sigma) and RNase A (3.5 μL of 30 mg/ml, Sigma) into PBS (10 mL). Cells were then analyzed at the Wistar Institute Flow Cytometry Core Facility using standard equipment, reagents, and methodologies known in the art.
# pRbAB = target: T1, pRbAB (Homo sapiens, UniProt P06400, DEL590-635); test: Isothermal titration calorimetry binding to pRbAB; conditions: for Kd: ITC, pRbAB, 22° C.
# T1 construct: untagged pRbAB (372-787 with the linker from 590-635 removed); made in house
# T1 sequence (P06400 with tags, fused parts or gaps DEL590-635): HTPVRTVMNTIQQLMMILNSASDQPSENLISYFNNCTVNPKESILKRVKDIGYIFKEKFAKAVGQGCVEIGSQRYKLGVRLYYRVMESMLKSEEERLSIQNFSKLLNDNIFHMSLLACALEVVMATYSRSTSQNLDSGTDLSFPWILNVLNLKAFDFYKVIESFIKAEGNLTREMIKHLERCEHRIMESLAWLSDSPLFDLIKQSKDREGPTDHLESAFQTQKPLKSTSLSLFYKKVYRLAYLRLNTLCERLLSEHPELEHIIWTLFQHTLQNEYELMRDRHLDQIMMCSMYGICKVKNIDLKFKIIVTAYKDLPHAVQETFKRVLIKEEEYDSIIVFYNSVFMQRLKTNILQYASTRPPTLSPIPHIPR
# Experimental: For use in isothermal titration calorimetry studies, untagged pRbAB (372-787 with the linker from 590-635 removed) was prepared as described in Xiao et al., PNAS USA, 100:2363-2368 (2003).
# This example illustrates the ability of the thiadiazolin-3,5-dione compounds to bind directly to a truncated pRb protein construct containing the A and B domains of the pRb pocket (pRbAB) using isothermal titration calorimetry (ITC).
# Binding of compounds 1-9 to pRbAB were measured by ITC using a MicroCal™ VP-ITC isothermal titration calorimeter (MicroCal, Inc). Proteins were extensively dialyzed against a buffer containing Hepes (20 mM), pH=7.5, NaCl (150 mM) and Tris carboxy ethyl phosphine (0.1 mM) prior to analysis. Eight to twelve μL injections of 750-1500 μM compound were titrated into a pRb solution (50-150 μM) pre-equilibrated to 22° C. After subtraction of dilution heats, calorimetric data were analyzed with the MicroCal™ Origin® V5.0 (MicroCal Software, Northampton, Mass.).
# [1] = target: T2, GST-pRbABC/6×His-Ad5E1ACR1-3 complex (Homo sapiens, UniProt P06400); test: ELISA: disruption of pRb/Ad5-E1A complex; type: binding, adenovirus; conditions: disruption of pRb/viral oncoprotein complex; 100 nM E1A
# T2 construct: made in house; host or cells: pRb: Sf9; E1A: E. coli BL21(DE3)
# T2 sequence (P06400 376-928): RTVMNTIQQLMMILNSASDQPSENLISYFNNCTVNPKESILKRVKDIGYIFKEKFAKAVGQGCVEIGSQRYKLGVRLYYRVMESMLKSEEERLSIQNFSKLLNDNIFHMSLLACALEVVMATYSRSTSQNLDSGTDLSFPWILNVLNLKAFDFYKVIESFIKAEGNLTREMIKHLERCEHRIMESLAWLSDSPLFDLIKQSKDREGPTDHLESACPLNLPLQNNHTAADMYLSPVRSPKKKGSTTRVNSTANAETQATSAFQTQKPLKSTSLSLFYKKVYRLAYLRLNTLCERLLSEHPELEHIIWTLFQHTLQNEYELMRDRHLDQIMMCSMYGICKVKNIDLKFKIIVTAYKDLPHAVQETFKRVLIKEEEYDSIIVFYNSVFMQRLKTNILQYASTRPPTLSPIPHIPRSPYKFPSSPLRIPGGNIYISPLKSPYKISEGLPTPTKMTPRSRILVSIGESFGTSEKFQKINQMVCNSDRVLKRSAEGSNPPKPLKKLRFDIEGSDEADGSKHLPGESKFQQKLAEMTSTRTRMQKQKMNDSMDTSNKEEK
# Experimental: (§1) A similar ELISA assay was used to assess the ability of the compounds to inhibit the ability of HPV16-E7-mediated disruption of E2F/pRb complexes. For these studies, 6×His-HPV1AE7CR2-3 and 6×His-Ad5E1ACR1-3, containing the L×C×E motif, were employed. The assay described above was modified in such a way that GST-pRbABC alone was added to HPV-E7CR2-3+ compound, HPV-E7CR2-3+DMSO, Ad5-E1ACR1-3+ compound, or Ad5-E1ACR1-3 DMSO. Mouse monoclonal anti-His antibody (Fisher) diluted 1:10,000 was used to detect how much His-E7CR2-3 remained bound to GST-pRbABC on the plate. Mouse monoclonal Ad5-E1A antibody (Abeam) diluted 1:10,000 was used to detect how much E1ACR1-3 remained bound to GST-pRbABC on the plate. All other steps remained unchanged.
# [2] = target: T3, GST-pRbABC/6×His-HPV1AE7CR2-3 complex (Homo sapiens, UniProt P06400); test: ELISA: disruption of pRb/HPV1A-E7 complex; type: binding, low risk HPV (type 1A); conditions: disruption of pRb/viral oncoprotein complex; 500 nM 1AE7
# T3 construct: made in house; host or cells: pRb: Sf9; E7: E. coli BL21(DE3)
# T3 sequence (P06400 376-928): T2 sequence (P06400 376-928)
# Experimental: as §1
# [3] = target: T4, GST-pRbABC/E2F complex disrupted by 6×His-Ad5E1ACR1-3 (Homo sapiens, UniProt P06400); test: ELISA: inhibition of adenovirus E1A-mediated disruption of pRb/E2F complexes; type: binding; conditions: E2F remaining bound to pRb; 100 nM E1A
# T4 construct: made in house; host or cells: pRb: Sf9; E2F1 and E1A: E. coli BL21(DE3)
# T4 sequence (P06400 376-928): T2 sequence (P06400 376-928)
# T4 sequence (Q01094 243-437 partner limits assumed): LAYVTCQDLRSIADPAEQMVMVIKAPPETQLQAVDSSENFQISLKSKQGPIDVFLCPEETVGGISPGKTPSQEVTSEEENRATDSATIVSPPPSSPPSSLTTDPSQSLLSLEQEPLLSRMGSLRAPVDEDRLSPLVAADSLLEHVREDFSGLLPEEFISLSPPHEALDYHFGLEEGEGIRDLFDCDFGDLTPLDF
# Experimental: (§2) Since HPV-E7 mediates high affinity pRb binding through the association of its L×C×E motif in CR2 to the B domain of pRb, the ability of the thiadiazolidinedione compounds to inhibit the ability of other L×C×E containing viral oncoproteins from disrupting E2F/pRb complexes was tested. The other L×C×E containing viral oncoproteins tested included HPV-E7 from a low risk HPV form (type 1A) and Adenovirus E1A proteins.
# as §1
# [4] = target: T5, GST-pRbABC/E2F complex disrupted by 6×His-HPV1AE7CR2-3 (Homo sapiens, UniProt P06400); test: ELISA: inhibition of HPV1A-E7-mediated disruption of pRb/E2F complexes; type: binding, low risk HPV (type 1A); conditions: E2F remaining bound to pRb; 500 nM 1AE7
# T5 construct: made in house; host or cells: pRb: Sf9; E2F1 and E7: E. coli BL21(DE3)
# T5 sequence (P06400 376-928): T2 sequence (P06400 376-928)
# T5 sequence (Q01094 243-437 partner limits assumed): T4 sequence (Q01094 243-437 partner limits assumed)
# Experimental: as §2, §1
# [5] = target: T6, GST-pRbABC/6×His-HPV16-E7CR2-3 complex (Homo sapiens, UniProt P06400); test: ELISA: disruption of pRb/HPV16-E7 complex; type: binding; conditions: disruption of pRb/viral oncoprotein complex; 500 nM 16E7
# T6 construct: made in house; host or cells: pRb: Sf9; E7: E. coli BL21(DE3)
# T6 sequence (P06400 376-928): T2 sequence (P06400 376-928)
# Experimental: An ELISA assay was utilized with modifications such that the amount of 6×His-HPV16-E7CR2-3 remaining bound to the partner protein on the plate could be measured. The compounds identified in Example 2 were purchased (Lankenau Institute for Medical Research) as powders. Their purity was verified by LC/MS and their structures by NMR. IC50 values were then measured for (i) the compounds identified in Example 1, (ii) the compounds prepared according to Examples 3-5, (iii) 2-phenyl-4-methyl-1,2,4-thiadiazolidin-3,5-dione (available from Molport, Latvia), and (iv) 4-benzyl-2-methyl-1,2,4-thiadiazolidin-3,5-dione (TDZD-8; Catalog No. T8325-5MG, Sigma) using the same ELISA-based assay as described for the high-throughput screen, except that the assay was performed manually in 96-well format and so all volumes used were double those from 384-well format.
# All compounds were solubilized in DMSO (50 mM) and diluted for use in the ELISA-based assay at a final DMSO concentration of less than 5%. Ten-fold dilutions of thiadiazolin-3,5-dione compound (starting at 100 μM) were added to a mixture containing GST-pRbABC and 6×His-HPV16E7CR2-3. The amount of E7 remaining was determined by adding a primary anti-His antibody. The concentrations of the compounds in the IC50 experiment spanned the range of enzyme activity from no inhibition to complete inhibition. Three independent IC50 measurements were performed for each compound and the average and standard deviation values are reported. All data was imported into the GraphPad® Software (Prism) for IC50 determination. To calculate the IC50 values, the dose-response curves were fit to one-site (Hill slope=1) sigmoidal-dose-response curves.
# SiHa cells (HPV 16) = test: MTS cytotoxicity in SiHa cells; type: cell-based; conditions: 48 hours
# Experimental: These 120 compounds were then analyzed for cytotoxicity in cervical cancer cells either infected with HPV16 (SiHa) or negative for infection with HPV (C-33A) (Yee et al., 1985). The metabolic viability of cells was measured using a MTS assay (3-(4,5-dimethylthiazol-2-yl)-5-(3-carboxymethoxyphenyl)-2-(4-sulfophenyl)-2H-tetrazolium).
# (§3) Cultured cell lines were seeded in 384-well, clear, tissue culture plates (NUNC) at 10,000 cells/well and 1,000 cells/well for C-33A and SiHa, respectively, and maintained overnight. These concentrations were determined based on each cell line's doubling time. […] Cell viability was then monitored by addition of MTS reagent (8 μL; Promega) and measurement at A490 using a Wallac Envision™ plate reader after 3 hours of incubation.
# as §3, with “10,000 cells/well, 1,000 cells/well, 1,000 cells/well, 1,000 cells/well,” for “10,000 cells/well”, “and 2,000” for “and 1,000”, “for C-33A,” for “for C-33A and”, “SiHa, HeLa, TC-1, or HCT116 cells,” for “SiHa,”
# [6] = 10 μM compound (staurosporine 2 μM)
# [7] = SiHa, 10 μM compound (staurosporine 2 μM)
SMILES,morphology of SiHa cells (SiHa cells),effect on SiHa cells (SiHa cells; [6]),% Apoptotic (SiHa cells; [7]),% G0/G1 (SiHa cells; [7]),% G2/M (SiHa cells; [7]),% S (SiHa cells; [7]),Kd (pRbAB),IC50 [1],IC50 [2],IC50 [3],IC50 [4],IC50 [5],reversibility of binding to pRb (pRbAB; ITC repeated after overnight dialysis of pRb/compound complex),cytotoxicity in SiHa cells (SiHa cells (HPV 16))
"Cn1c(=O)on(-c2ccc(Cl)c(Cl)c2)c1=O [2-(3,4-dimethyl-phenyl)-4-methyl-1,2,4-oxadiazolin-3,5-dione, reference compound]",maintained the elongated shape,no effect,0.9%,71.8%,16.3%,11.3%,,,,,,,,
Cc1ccccc1-n1sc(=O)n(C(C)C)c1=O [Compound 1],,,,,,,0.165 ± 0.052 µM,5 ± 1.8 µM,7.9 ± 2.1 µM,2.8 ± 2.2 µM,10.6 ± 1.3 µM,,,
COn1c(=O)sn(-c2ccccc2C)c1=O [Compound 2],,,,,,,0.104 ± 0.025 µM,2.6 ± 1.3 µM,3 ± 2.3 µM,0.64 µM,3.5 ± 1.6 µM,0.57 ± 1.2 µM,,
Cc1ccccc1-n1sc(=O)n(C)c1=O [Compound 3],,most drastically affected,6.5%,,,15.4%,0.106 ± 0.034 µM,1 ± 2.1 µM,3.4 ± 2 µM,0.24 µM,4.5 ± 1.7 µM,0.5 ± 1.5 µM,reversible,
Cc1cc(Cl)ccc1-n1sc(=O)n(C(C)C)c1=O [Compound 4],,most drastically affected,15.2%,,,15.8%,0.187 ± 0.022 µM,3.8 ± 1.5 µM,4.7 ± 2.1 µM,1.3 ± 2.2 µM,5.5 ± 1.7 µM,4.5 ± 1.5 µM,,
Cc1cccc(-n2sc(=O)n(C(C)C)c2=O)c1 [Compound 5],,,,,,,0.21 ± 0.051 µM,3.5 ± 1.7 µM,5.5 ± 2.7 µM,1.1 ± 2.5 µM,5.5 ± 1.5 µM,3.2 ± 1.3 µM,,
COc1ccc(-n2sc(=O)n(C)c2=O)cc1 [Compound 6],,,,,,,0.381 ± 0.031 µM,7.7 ± 1.7 µM,1.3 ± 1.3 µM,1.7 ± 2.7 µM,3.3 ± 1.6 µM,0.4 µM,,
COc1cccc(-n2sc(=O)n(C)c2=O)c1 [Compound 7],,,,,,,0.815 ± 0.07 µM,2.8 ± 2.1 µM,4 ± 2.5 µM,3.2 ± 2.7 µM,3.5 ± 1.7 µM,0.29 µM,,
"CN[C@@H]1C[C@H]2O[C@@](C)([C@@H]1OC)n1c3ccccc3c3c4c(c5c6ccccc6n2c5c31)C(=O)NC4 [Staurosporine, reference compound]",,most drastically affected,34.3%,31.3%,,13.8%,,,,,,,,toxic
